# In patent EP0103381B1, “Substituted anthra(1,9-cd)pyrazol-6(2H)-ones” (WARNER-LAMBERT COMPANY, priority 1982, dated 1984):
# How the values were obtained:
# Penicillium avellaneum = experiment: agar plate paper-disc inhibition zone screening; format: cell-based; details: Hamigera avellanea; Dose 3.0 mg/ml; read-out: Inhibition Zone Diameter mm (Dose mg/ml) P. Avellaneum
# In short: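 Mycelia and spores from a six-day 28°C agar culture, suspended in saline with 0.05% Tween 80 at 20% transmittancy, were seeded into molten agar trays. Compounds at 3,000, 1,000, 500, 100 and 10 mcg/ml (solvent <10%) were applied on 12.7 mm paper discs. After at least 20-24 h incubation, inhibition zone diameter was measured in mm.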
# [1] = tested on: lymphocytic leukemia P388; experiment: in vivo lymphocytic leukemia P388 test; parameters: species or system mice; details: Mus musculus, P388, ip, 720 h, two single doses four days apart, read-out: T/C × 100 (Percent); for response vs control in vivo at 50 mg/kg: P388, Dose 50 mg/kg intraperitoneally
# In short: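 Efficacy was judged from the treated/control survival-time ratio over 30 days (T/C×100 >125% as criterion). Mice (CD2F, 6–7/group) received i.p. P388 ascites cells, then compound i.p. at varied doses twice, four days apart.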
# Aerobacter aerogenes = experiment: agar plate paper-disc inhibition zone screening; format: cell-based; details: Klebsiella aerogenes, read-out: Inhibition Zone Diameter mm (Dose mg/ml) A. Aerogenes; for zone of inhibition at 1000 µg/mL: Dose 1.0 mg/ml
# In short: (§1)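 Inoculum: saline suspension, 20-35% transmittancy, in molten agar. Discs 12.7 mm, compound 3,000/1,000/500/100/10 mcg/ml, solvent <10%. 37°C, 18-20 h; zone diameter in mm.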
# Bacillus subtilis = experiment: agar plate paper-disc inhibition zone screening; format: cell-based; details: read-out: Inhibition Zone Diameter mm (Dose mg/ml) B. Subtilis; for zone of inhibition at 3000 µg/mL: Dose 3.0 mg/ml
# In short: as §1
# Escherichia coli = experiment: agar plate paper-disc inhibition zone screening; format: cell-based; details: read-out: Inhibition Zone Diameter mm (Dose mg/ml) E. Coli
# In short: as §1
# Streptococcus faecalis = experiment: agar plate paper-disc inhibition zone screening; format: cell-based; details: Enterococcus faecalis; Dose 3.0 mg/ml; read-out: Inhibition Zone Diameter mm (Dose mg/ml) S. Faecalis
# In short: as §1
# L1210 Leukemia = experiment: L1210 leukemia in vitro; format: cell-based; details: Mus musculus, procedure of Europ. J. Cancer 17, 671 (1981), read-out: L1210 Leukemia In Vitro ID50 Molar
Structure (SMILES),zone of inhibition at 3000 µg/mL (Penicillium avellaneum),response vs control in vivo at 50 mg/kg [1],zone of inhibition at 1000 µg/mL (Aerobacter aerogenes),zone of inhibition at 3000 µg/mL (Bacillus subtilis),zone of inhibition at 3000 µg/mL (Escherichia coli; Dose 3.0 mg/ml),zone of inhibition at 3000 µg/mL (Streptococcus faecalis),IC50 (L1210 Leukemia),"response vs control in vivo at 6.25 mg/kg ([1]; P388, Dose 6.25 mg/kg intraperitoneally)","response vs control in vivo at 12.5 mg/kg ([1]; P388, Dose 12.5 mg/kg intraperitoneally)","response vs control in vivo at 25 mg/kg ([1]; P388, Dose 25 mg/kg intraperitoneally)",zone of inhibition at 500 µg/mL (Escherichia coli; Dose 0.5 mg/ml),"response vs control in vivo at 100 mg/kg ([1]; P388, Dose 100 mg/kg intraperitoneally)",zone of inhibition at 500 µg/mL (Aerobacter aerogenes; Dose 0.5 mg/ml),zone of inhibition at 100 µg/mL (Bacillus subtilis; Dose 0.1 mg/ml),zone of inhibition at 100 µg/mL (Escherichia coli; Dose 0.1 mg/ml)
"NCCn1nc2c3c(c(Cl)ccc31)C(=O)c1c(O)ccc(O)c1-2 [7,10-(OH)2; Cl*; (CH2)2NH2, 2-(2-Aminoethyl)-5-chloro-7,10-dihydroxyanthra[1,9-cd]pyrazol-6(2H)-one]",0 mm,125%,14 mm,0 mm,15 mm,0 mm,0.63 µM,–,–,–,–,–,–,–,–
"O=C1c2c(O)ccc(O)c2-c2nn(CCNCCO)c3ccc(Cl)c1c23 [7,10-(OH)2; Cl*; (CH2)2NH(CH2)2OH, 5-Chloro-7,10-dihydroxy-2-[2-[(2-hydroxyethyl)amino]ethyl]anthra[1,9-cd]pyrazol-6(2H)-one]",0 mm,161%,14 mm,0 mm,–,0 mm,0.66 µM,131%,138%,143%,14 mm,–,–,–,–
"O=C1c2ccccc2-c2nn(CCNCCO)c3ccc(Cl)c1c23 [H; Cl*; (CH2)2NH(CH2)2OH, 5-chloro-2-[2-[(2-hydroxyethyl)amino]ethyl]anthra[1,9-cd]pyrazol-6(2H)-one]",0 mm,–,–,–,–,15 mm,0.39 µM,–,–,–,–,124%,18 mm,16 mm,16 mm
